Data on 10 compounds can be found in US8084649B2, “Herbicides” (Syngenta Crop Protection, inc., priority 2007, dated 2011).

Holding throughout (format): in vivo
The test system of test [1] is Lolium perenne (LOLPE). Briefly: Post-emergence herbicidal activity, glasshouse pot test. To be noted: Lolium perenne, evaluated after 14 or 15 days, read-out: Post-emergence activity, LOLPE (100=total damage to plant; 0=no damage to plant); for pest or weed control at 125 g/ha: rate 125 g/ha; for pest or weed control at 500 g/ha: rate 500 g/ha. In outline: (§1)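 Test species were grown in sterilised soil for 10 days, sprayed post-emergence with the aqueous formulated compound, and kept in a greenhouse under optimum conditions. Herbicidal effect was assessed after 14 or 15 days as percent damage, where 0 means no effect.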

For test [2], the system named is Alopecurus myosuroides (ALOMY). The description is as above. To be noted: Alopecurus myosuroides, evaluated after 14 or 15 days, read-out: Post-emergence activity, ALOMY (100=total damage to plant; 0=no damage to plant); for pest or weed control at 125 g/ha: rate 125 g/ha; for pest or weed control at 500 g/ha: rate 500 g/ha. In a few lines:
as §1

Test [3] deals with Echinochloa crus-galli (ECHCG). Described as above. Conditions: Echinochloa crus-galli, evaluated after 14 or 15 days, read-out: Post-emergence activity, ECHCG (100=total damage to plant; 0=no damage to plant); for pest or weed control at 125 g/ha: rate 125 g/ha; for pest or weed control at 500 g/ha: rate 500 g/ha. In a few lines:
as §1

Test [4] has as its system Setaria faberi (SETFA). The test is described as above. Conditions: Setaria faberi, evaluated after 14 or 15 days, read-out: Post-emergence activity, SETFA (100=total damage to plant; 0=no damage to plant); for pest or weed control at 125 g/ha: rate 125 g/ha; for pest or weed control at 500 g/ha: rate 500 g/ha. In outline: as §1
For test [5], the system named is Avena fatua (AVEFA). The test is described as above. Conditions: Avena fatua, evaluated after 14 or 15 days, read-out: Post-emergence activity, AVEFA (100=total damage to plant; 0=no damage to plant); for pest or weed control at 125 g/ha: rate 125 g/ha; for pest or weed control at 500 g/ha: rate 500 g/ha. In outline:
as §1

For test [6], the system named is Digitaria sanguinalis (DIGSA). The test is described as above. Conditions: Digitaria sanguinalis, evaluated after 14 or 15 days, read-out: Post-emergence activity, DIGSA (100=total damage to plant; 0=no damage to plant); for pest or weed control at 125 g/ha: rate 125 g/ha; for pest or weed control at 500 g/ha: rate 500 g/ha. In a few lines:
as §1

For test [7], the system named is Lolium perenne (LOLPE). Briefly: Pre-emergence herbicidal activity, glasshouse pot test. To be noted: Lolium perenne, 480 h, rate 500 g/ha, evaluated after 20 days, read-out: Pre-emergence activity, LOLPE (100=total damage to plant; 0=no damage to plant). In outline: (§2)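 Pre-emergence application: sprayed one day after seeding into pots of sterilised standard soil. After 20 days' growth in a greenhouse, percent damage was scored visually, 0 meaning unharmed and 100 total damage.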

Test [8] relates to Alopecurus myosuroides (ALOMY). The description is as above. Conditions: Alopecurus myosuroides, 480 h, rate 500 g/ha, evaluated after 20 days, read-out: Pre-emergence activity, ALOMY (100=total damage to plant; 0=no damage to plant). In outline:
as §2

Test [9] deals with Echinochloa crus-galli (ECHCG). The test is described as above. To be noted: Echinochloa crus-galli, 480 h, rate 500 g/ha, evaluated after 20 days, read-out: Pre-emergence activity, ECHCG (100=total damage to plant; 0=no damage to plant). In a few lines: as §2
The test system of test [10] is Setaria faberi (SETFA). Described as above. Conditions: Setaria faberi, 480 h, rate 500 g/ha, evaluated after 20 days, read-out: Pre-emergence activity, SETFA (100=total damage to plant; 0=no damage to plant). In a few lines:
as §2

The test system of test [11] is Avena fatua (AVEFA). The test is described as above. To be noted: Avena fatua, 480 h, rate 500 g/ha, evaluated after 20 days, read-out: Pre-emergence activity, AVEFA (100=total damage to plant; 0=no damage to plant). In outline:
as §2

The subject of test [12] is Digitaria sanguinalis (DIGSA). Described as above. Conditions: Digitaria sanguinalis, 480 h, rate 500 g/ha, evaluated after 20 days, read-out: Pre-emergence activity, DIGSA (100=total damage to plant; 0=no damage to plant). In outline:
as §2

Each structure is given as a SMILES string.

As to `C=CCCCCCCCCC(=O)OC1=C(c2c(CC)cc(C)cc2CC)C(=O)CC2(CCOCC2)C1` [Compound P47], the pest or weed control at 125 g/ha with Lolium perenne (LOLPE) [1] was found to be 50%; in test [2], 70%; in test [3], 70%; in the test with Setaria faberi (SETFA) [4], 60%; in the test with Avena fatua (AVEFA) [5], 60%; in test [6], 70%. The pest or weed control at 500 g/ha (in the test on Lolium perenne (LOLPE) [7]; in [8]; in [9]; in the test on Setaria faberi (SETFA) [10]; in the test with Avena fatua (AVEFA) [11]; in [12]) was 100% each time.

In the case of `CCc1cc(CC)c(C2=C(OC(=O)C(C)(C)C)CC3(CCOCC3)CC2=O)c(CC)c1` [Compound P49], the pest or weed control at 500 g/ha with Lolium perenne (LOLPE) [1] stood at 50%; in test [2], 60%; in test [3] it was 90%; in the test with Setaria faberi (SETFA) [4], 80%; in the test on Avena fatua (AVEFA) [5], 10%; in test [6] it was 90%. Besides, the pest or weed control at 500 g/ha with Lolium perenne (LOLPE) [7] turned out to be 100%; in [8], 100%; in [9], 100%; in the test with Setaria faberi (SETFA) [10], 100%; in the test on Avena fatua (AVEFA) [11] it was 60%; in test [12], 100%.

Consider `COC1CCC2(CC1)CC(=O)C(c1cc(C)ccc1C)=C(OC(=O)CC(C)(C)C)C2` (stereo not drawn) [Compound P56], for which the pest or weed control at 500 g/ha was 70% with Lolium perenne (LOLPE) [1]; 70% in test [2]; 80% in [3]; 70% in the test with Setaria faberi (SETFA) [4]; 10% in the test on Avena fatua (AVEFA) [5]; 80% in test [6]. For the same compound, the pest or weed control at 500 g/ha in the test on Lolium perenne (LOLPE) [7] came to 60%; in test [8] it was 100%; in [9], 80%; in the test on Setaria faberi (SETFA) [10], 100%; in the test with Avena fatua (AVEFA) [11], 60%; in test [12], 100%.

For the compound `CCc1cc(C)cc(CC)c1C1=C(OC(=O)C(C)(C)C)CC2(CCCSC2)CC1=O` (stereo not drawn) [Compound P59], the pest or weed control at 125 g/ha was found to be 20% with Lolium perenne (LOLPE) [1]; 40% in test [2]; 30% in test [3]; 60% in the test with Setaria faberi (SETFA) [4]; 0% in the test with Avena fatua (AVEFA) [5]; 80% in test [6]. The pest or weed control at 500 g/ha in the test with Lolium perenne (LOLPE) [7] is 10%; in [8] it was 20%; in test [9], 50%; in the test with Setaria faberi (SETFA) [10], 70%; in the test with Avena fatua (AVEFA) [11], 10%; in test [12] it was 100%.

On to `CCc1cc(C)cc(CC)c1C1=C(OC(=O)C(C)(C)C)CC(CC(C)SC(C)C)CC1=O` (stereo not drawn) [Compound P60], for which the pest or weed control at 125 g/ha with Lolium perenne (LOLPE) [1] is 70%; in test [2] it was 70%; in test [3] it was 70%; with Setaria faberi (SETFA) [4], 60%; in the test on Avena fatua (AVEFA) [5] it was 50%; in test [6] it was 60%. Further, the pest or weed control at 500 g/ha stood at 100% in the test on Lolium perenne (LOLPE) [7]; 80% in test [8]; 90% in test [9]; 90% with Setaria faberi (SETFA) [10]; 0% in the test with Avena fatua (AVEFA) [11]; 100% in test [12].

As for `CCSC(C)CC1CC(=O)C(c2c(C)cc(C)cc2CC)=C(O)C1` (stereo not drawn) [Compound T1], the pest or weed control at 500 g/ha in the test on Lolium perenne (LOLPE) [1] worked out at 70%; in test [2], 70%; in test [3] it was 90%; with Setaria faberi (SETFA) [4] it was 80%; in the test with Avena fatua (AVEFA) [5], 70%; in [6], 90%. Further, the pest or weed control at 500 g/ha stood at 70% in the test on Lolium perenne (LOLPE) [7]; 60% in test [8]; 100% in test [9]; 70% in the test with Setaria faberi (SETFA) [10]; 30% in the test with Avena fatua (AVEFA) [11]; 70% in test [12].

Regarding `CCc1cc(CC)c(C2=C(O)CC3(CCOCC3)CC2=O)c(CC)c1` [Compound T2], the pest or weed control at 500 g/ha stood at 80% in the test on Lolium perenne (LOLPE) [1]; 80% in [2]; 100% in [3]; 80% in the test with Setaria faberi (SETFA) [4]; 80% in the test with Avena fatua (AVEFA) [5]; 100% in test [6]. Moreover, the pest or weed control at 500 g/ha in the test on Lolium perenne (LOLPE) [7] was found to be 100%; in test [8], 80%; in [9] it was 100%; in the test on Setaria faberi (SETFA) [10], 90%; with Avena fatua (AVEFA) [11], 70%; in test [12], 100%.

Take `Cc1ccc(-c2ccc(Cl)cc2)cc1C1=C(O)CC2(CCOCC2)CC1=O` [Compound T3]: the pest or weed control at 500 g/ha in the test on Lolium perenne (LOLPE) [1] is 80%; in test [2], 80%; in test [3], 100%; with Setaria faberi (SETFA) [4], 100%; in the test with Avena fatua (AVEFA) [5] it was 80%; in test [6], 100%. Further, the pest or weed control at 500 g/ha with Lolium perenne (LOLPE) [7] turned out to be 60%; in test [8], 40%; in test [9] it was 100%; with Setaria faberi (SETFA) [10], 100%; in the test on Avena fatua (AVEFA) [11], 50%; in test [12] it was 100%.

As for `Cc1cc(C)c(C2=C(O)CC3(CCS(=O)(=O)CC3)CC2=O)c(C)c1` [Compound T5], the pest or weed control at 500 g/ha was 70% in the test on Lolium perenne (LOLPE) [1]; 70% in [2]; 60% in [3]; 70% with Setaria faberi (SETFA) [4]; 20% with Avena fatua (AVEFA) [5]; 70% in [6]. Further, the pest or weed control at 500 g/ha in the test with Lolium perenne (LOLPE) [7] came to 60%; in [8], 70%; in [9] it was 40%; with Setaria faberi (SETFA) [10] it was 30%; with Avena fatua (AVEFA) [11], 10%; in [12], 70%.

As for `Cc1cc(C)c(C2=C(O)CC3(CCSCC3)CC2=O)c(C)c1` [Compound T6], the pest or weed control at 500 g/ha in the test with Lolium perenne (LOLPE) [1] was found to be 10%; in [2] it was 20%; in [3] it was 80%; with Setaria faberi (SETFA) [4], 80%; with Avena fatua (AVEFA) [5] it was 10%; in test [6], 90%. Moreover, the pest or weed control at 500 g/ha in the test on Lolium perenne (LOLPE) [7] amounted to 0%; in test [8] it was 20%; in [9], 10%; in the test on Setaria faberi (SETFA) [10], 10%; in the test with Avena fatua (AVEFA) [11], 30%; in test [12], 10%.
